# Test results: paper PMC7272617 (Scientific Reports, 2020)
# What was measured:
# Test in all cases: microbe, parasite or virus in culture
# [1] = system: MDR P. aeruginosa clinical isolate No.9; conditions: Pseudomonas aeruginosa
# [2] = system: MDR P. aeruginosa clinical isolate No.8; conditions: Pseudomonas aeruginosa
# [3] = system: MDR P. aeruginosa clinical isolate No.12; conditions: Pseudomonas aeruginosa
# [4] = system: MDR P. aeruginosa clinical isolate No.14; conditions: Pseudomonas aeruginosa
# [5] = system: MDR P. aeruginosa clinical isolate No.1; conditions: Pseudomonas aeruginosa
# [6] = system: MDR P. aeruginosa clinical isolate No.4; conditions: Pseudomonas aeruginosa
# [7] = system: MDR P. aeruginosa clinical isolate No.7; conditions: Pseudomonas aeruginosa
# [8] = system: MDR P. aeruginosa clinical isolate No.11; conditions: Pseudomonas aeruginosa
# [9] = system: Pseudomonas aeruginosa ATCC 27853; conditions: ATCC27853, 24 h
# [10] = system: MDR P. aeruginosa clinical isolate No.5; conditions: Pseudomonas aeruginosa
# [11] = system: MDR P. aeruginosa clinical isolate No.6; conditions: Pseudomonas aeruginosa
# [12] = system: MDR P. aeruginosa clinical isolate No.13; conditions: Pseudomonas aeruginosa
# [13] = system: MDR P. aeruginosa clinical isolate No.10; conditions: Pseudomonas aeruginosa
# [14] = system: MDR P. aeruginosa clinical isolate No.3; conditions: Pseudomonas aeruginosa
# [15] = system: MDR P. aeruginosa clinical isolate No.2; conditions: Pseudomonas aeruginosa
smiles,measurement,setting,value
C[C@@H](O)[C@H]1C(=O)N2C(C(=O)O)=C(SCCN=CN)C[C@H]12 [Imipenem],MIC,[1],> 125 µg/mL
same,MIC,[2],125 µg/mL
same,MIC,[3],125 µg/mL
same,MIC,[4],> 125 µg/mL
same,MIC,[5],> 125 µg/mL
same,MIC,[6],> 125 µg/mL
same,MIC,[7],> 125 µg/mL
same,MIC,[8],> 125 µg/mL
same,MIC,[9],≤ 0.98 µg/mL
same,MIC,[10],125 µg/mL
same,MIC,[11],> 125 µg/mL
same,MIC,[12],62.5 µg/mL
same,MIC,[13],> 125 µg/mL
same,MIC,[14],> 125 µg/mL
same,MIC,[15],> 125 µg/mL
